Test results as given in patent publication US20250345350A1, “TREATING PAIN ASSOCIATED WITH CENTRAL SENSITIZATION” (Medicon Pharmaceuticals, Inc., priority 2022, published 2025).
Where two headings read alike, the source gives them in different places.

Assays:
[1] = Pharmacokinetics and biodistribution after topical PS 8% ointment to hind paws (Example 25); format: in vivo, mouse; conditions: normal mice, topical PS 8% ointment to hind paws; for AUC(0-t) / Cmax / half-life: mouse, in vivo, topical or ocular, 50 μl per paw of PS 8% ointment; for AUC(0-t): read-out: AUC0-24 h; for Cmax: read-out: Cmax, mean ± SEM
Experimental: At 0.5, 1, 3, 5, 12, 18, and 24 h, mice (n=4-5 mice/time point) were euthanized with CO2 inhalation. Blood was drawn immediately after death. Tissues, including paw skin, paw muscle, leg muscle, the sciatic nerve and lumbar DRG bilaterally were dissected quickly, immediately frozen in liquid nitrogen and stored at −80° C. until analyzed.

[2] = Pharmacokinetics and biodistribution after 3% PS gel on outer surface of eyelid (Example 26); format: in vivo, rabbit; conditions: male, New Zealand White, rabbit, rabbits, 3% PS gel on outer surface of upper eyelids; for Cmax / half-life / AUC(0-t): topical or ocular; for AUC(0-t): read-out: AUC0-24 h; for concentration at 0.5 h / concentration at 1 h / concentration at 2 h / concentration at 4 h / concentration at 8 h / concentration at 24 h: topical, read-out: Amount in tissue, Mean ± SEM
Experimental: The pharmacokinetics and biodistribution of 3% PS gel applied to the outer surface of both upper eyelids was studies in male New Zealand White rabbits.
Eyelid and tissues of the globe were dissected and frozen quickly in liquid nitrogen until the levels of PS and its metabolites were determined by HPLC as described Xie et al. (Br J Pharmacol (2012);165:2152-66).

[3] = test system: paclitaxel-induced central sensitization in C57/BL/6J mice; conditions: day 14
Experimental: Regarding the treatment with lidocaine: 5% lidocaine cream (a positive control) was applied once to both hind paws of the mice 30 minutes before measurement of PWT.
Briefly, for mechanical allodynia, pain threshold responses were measured using the well-established method of von Frey filaments in line with that performed in the earlier Examples. The PWT test was performed on day-8 (before the first dose of paclitaxel), the day of starting treatment (day 0, at which central sensitization was fully established) and day 14 (treatment continued until day 15). The mechanical threshold, expressed as g, indicates the force of the von Frey filament to which the animal reacted.

[4] = test system: STZ-induced central sensitization in Sprague-Dawley rats; assay: PWT (von Frey), streptozotocin rat model of central sensitization (Example 4); format: in vivo; conditions: week 7; PS 8% hydrogel to both hind paws 3 times a day for 3 weeks from week 4 after STZ
Experimental: Sprague-Dawley rats were fasted for 4-6 hours before being injected intraperitoneally with 45 mg/kg STZ. This was performed for all experimental groups, except the naive group. In order to prevent hypoglycaemic death, rats received 10% sucrose water as the sole water source for the first 48 hours after injection. In order to ensure only those rats considered diabetic (i.e., having non-fasting plasma glucose levels of >250 mg/dL) were included in the study, blood glucose was measured at 72 hours after the STZ injection.
Four weeks after STZ injection, the rats were randomised into treatment groups. This delay between STZ injection and treatment allows the establishment of chronic pain (allodynia) associated with central sensitization. […] 5% lidocaine cream (positive control) was applied only once to both hind paws of the rats 30 minutes before measurement of PWT.
The rats were split into 8 study groups, with those in the experimental groups (1-4) having an average body weight of about 225 g, and those in the control groups (5-8) having an average body weight of about 335 g, as follows: • 1. Group 1: naive rats (n=5) • 2. Group 2: STZ only (n=6) • 3. Group 3: STZ plus vehicle (n=6) • 4. […] Group 5: STZ plus oral vehicle (n=8) • 6. Group 6: STZ plus 0.7% sulindac hydrogel (n=7) • 7. Group 7: STZ plus 5% lidocaine cream (n=8) • 8.

[5] = test system: PHN induced by HSV-1 KOS strain virus in BALB/c mice; assay: PWT (von Frey), HSV-1 mouse model of PHN, topical (Example 20); format: in vivo
Experimental: PHN was induced in mice by infecting them with the HSV-1 KOS strain virus and following established protocols (Ou et al, Front Immunol, 14, 1026269, 2023; Takasaki et al, Anesthesiology, 96(5), 1168-74, 2002).
; Reckitt Benckiser). Three days later, HSV-1 (10^6 PFUs in 20 μl PBS) was inoculated on the shin of the right hind paw (5×5 mm) after scarification with sandpaper. The virus was applied directly to the scarified area. The contralateral hind paw was without inoculation. Mock infection was performed using the same virus inactivated by heating at 60° C. for 1 h.
. Group 1: sham inoculated (n=5-7) • 2.
In a second experiment, the effect of the parent compound, sulindac, was tested in the same mouse model. Five days post-inoculation, sulindac (as a 5% gel), or vehicle control were administered topically onto both hind paws of mice three times a day for three days.
. Group 1: vehicle control (n=5-7) • 2. Group 2: sulindac 5% (n=5-7)

[6] = test system: NTG-induced chronic migraine in mice; assay: PWT (von Frey), NTG-induced chronic migraine model, oral (Example 16)
[7] = PS and metabolites in proximal and distal half of the sciatic nerve (Example 25); format: in vivo, mouse; conditions: mice with paclitaxel-induced PN, PS 8% ointment 3x/d for 2 wks, 30 min after last dose; for concentration at 30 min: mouse, in vivo, 8 % PS ointment, 3×/d
Experimental: In a separate experiment we studied 8 mice with paclitaxel-induced PN treated with PS 8% ointment 3×/d for 2 wks. Mice were euthanized as above 30 minutes after the last dose of PS. From these mice we harvested both sciatic nerves dividing each into proximal and distal halves, and combined the corresponding halves of every two animals for assay of drug levels.

[8] = test system: NTG-induced migraine in C57BL/6J mice; assay: PWT (von Frey), NTG-induced migraine mouse model, topical (Example 13)
Experimental: Specifically, instead of the intraperitoneal injection of NTG, a finely crushed 0.4 mg NTG tablet (Greenstone Brand) was administered sublingually. As a control, a Practi-Nitroglycerin Sublingual 0.4 mg Simulated Medication tablet was used.
For determining mechanical allodynia, pain threshold responses were measured using the well-established method of von Frey filaments in line with that performed in the earlier Examples.
The PWT test, assessing mechanical allodynia, was performed 30 minutes after treatment. The mechanical threshold, expressed as g, indicates the force of the von Frey filament to which the animal reacted.

CCOP(=O)(OCC)OCCCCOC(=O)CC1=C(C)/C(=C/c2ccc([S+](C)[O-])cc2)c2ccc(F)cc21 (centres unmarked) [PS, phosphosulindac]
AUC(0-t) ([1]; DRG (dorsal root ganglia)): 4.5 µM·h
Cmax ([1]; DRG (dorsal root ganglia)): 300 ± 100 nM
half-life ([1]; SN (sciatic nerve)): 57.4 h
AUC(0-t) ([1]; SN (sciatic nerve)): 12 µM·h
Cmax ([1]; SN (sciatic nerve)): 900 ± 100 nM
half-life ([1]; leg muscle): 20.6 h
AUC(0-t) ([1]; leg muscle): 172 µM·h
Cmax ([1]; leg muscle): 35000 ± 3600 nM
half-life ([1]; paw muscle): 11.4 h
AUC(0-t) ([1]; paw muscle): 411 µM·h
Cmax ([1]; paw muscle): 102000 ± 4600 nM
half-life ([1]; paw skin): 16.1 h
AUC(0-t) ([1]; paw skin): 1610 µM·h
Cmax ([1]; paw skin): 195000 ± 5300 nM
detection in the systemic circulation [1]: no PS was detected
Cmax ([2]; conjunctiva): 5800 nM
half-life ([2]; conjunctiva): 5.7 h
AUC(0-t) ([2]; conjunctiva): 58.6 ± 0.9 µM·h
Cmax ([2]; cornea): 1800 nM
half-life ([2]; cornea): 23 h
AUC(0-t) ([2]; cornea): 6.4 ± 0.4 µM·h
Cmax ([2]; eyelid): 14200 nM
half-life ([2]; eyelid): 14.4 h
AUC(0-t) ([2]; eyelid): 45.2 ± 0.5 µM·h
concentration at 0.5 h ([2]; AH (aqueous humor)): 0 nM
concentration at 1 h ([2]; AH (aqueous humor)): 0 nM
concentration at 2 h ([2]; AH (aqueous humor)): 0 nM
concentration at 4 h ([2]; AH (aqueous humor)): 0 nM
concentration at 8 h ([2]; AH (aqueous humor)): 0 nM
concentration at 24 h ([2]; AH (aqueous humor)): 0 nM
concentration at 0.5 h ([2]; conjunctiva): 1300 ± 100 nM
concentration at 1 h ([2]; conjunctiva): 1800 ± 300 nM
concentration at 2 h ([2]; conjunctiva): 400 ± 100 nM
concentration at 4 h ([2]; conjunctiva): 6100 ± 3300 nM
concentration at 8 h ([2]; conjunctiva): 3400 ± 1400 nM
concentration at 24 h ([2]; conjunctiva): 500 ± 400 nM
concentration at 0.5 h ([2]; cornea): 1800 ± 900 nM
concentration at 1 h ([2]; cornea): 1300 ± 200 nM
concentration at 2 h ([2]; cornea): 1400 ± 100 nM
concentration at 4 h ([2]; cornea): 500 ± 100 nM
concentration at 8 h ([2]; cornea): 1100 ± 600 nM
concentration at 24 h ([2]; cornea): 0 nM
concentration at 0.5 h ([2]; eyelid): 8300 ± 2200 nM
concentration at 1 h ([2]; eyelid): 14200 ± 5300 nM
concentration at 2 h ([2]; eyelid): 2000 ± 500 nM
concentration at 4 h ([2]; eyelid): 3500 ± 1900 nM
concentration at 8 h ([2]; eyelid): 200 ± 200 nM
concentration at 24 h ([2]; eyelid): 1800 ± 1300 nM
concentration at 0.5 h ([2]; vitreous): 0 nM
concentration at 1 h ([2]; vitreous): 0 nM
concentration at 2 h ([2]; vitreous): 0 nM
concentration at 4 h ([2]; vitreous): 0 nM
concentration at 8 h ([2]; vitreous): 0 nM
concentration at 24 h ([2]; vitreous): 0 nM
PWT, g Mean ± SEM ([3]; PS 1.2% (equimolar to sulindac 0.7%) 3 times a day): 0.98 ± 0.06 g
PWT, g Mean ± SEM ([3]; PS hydrogel 5% or 0.7% sulindac 3 times a day, 5% lidocaine cream once 30 min before, pregabalin 10 mg/kg orally once 1 h before): 1.24 ± 0.07 g
PWT, gm Mean ± SEM [4]: 22.5 ± 2.20 gm
PWT, g Mean ± SEM ([5]; Post-inoculation, day 5 (before treatment)): 0.53 ± 0.06 g
PWT, g Mean ± SEM ([5]; Post-treatment, PS 5% gel on both hind paws three times a day for three days): 0.93 ± 0.06 g
PWT, g Mean ± SEM ([5]; Pre-inoculation): 1.27 ± 0.19 g
PWT, g Mean ± SEM ([6]; Baseline, prior to NTG administration): 2.28 ± 0.34 g
PWT, g Mean ± SEM ([6]; Day 11, orally once a day for 11 days concurrent with NTG, PS 50 mg/kg, sulindac 33 mg/kg): 1.18 ± 0.10 g
Distal half of sciatic nerve, mean ± SEM [7]: 17.0 ± 5.1 µM
Proximal half of sciatic nerve, μM, mean ± SEM [7]: 0.9 ± 0.3 µM
concentration at 30 min ([7]; read-out: Distal half of sciatic nerve, mean ± SEM): 17 ± 5.1 µM
concentration at 30 min ([7]; read-out: Proximal half of sciatic nerve, μM, mean ± SEM): 0.9 ± 0.3 µM
PWT Post-treatment Mean ± SEM ([8]; 30 min after treatment, PS 8% gel or sulindac 5.3% (in DMSO) on both hind paws 30 min after NTG): 1.00 ± 0.12 g
PWT Baseline Mean ± SEM ([8]; baseline of the group, before NTG and treatment): 1.72 ± 0.10 g
